Measurements taken from patent EP0012139A1, “Therapeutic agent for stimulating the immune response in a mammal” (AMERICAN CYANAMID COMPANY, priority 1978, dated 1980).
Counter-ions that a name gives are not always drawn.

What was measured:
[1] = test system: transplantable C3H mammary tumor; test: Transplanted C3H mammary tumor growth in mice; settings: for Ave. tumor diameter (mm.^2) (weeks after tumor implantation 3): week 3, untreated control 22; for Ave. tumor diameter (mm.^2) (weeks after tumor implantation 4): week 4, untreated control 73; for Ave. tumor diameter (mm.^2) (weeks after tumor implantation 5): week 5, untreated control 149; for Ave. tumor diameter (mm.^2) (weeks after tumor implantation 6): week 6, untreated control 218; for Ave. tumor diameter (mm.^2) (weeks after tumor implantation 7): week 7, untreated control 316
Description: C3H/HEB/J male mice were inoculated subcutaneously with five 2 mm. fragments of a transplantable C3H mammary tumor on day zero. Drugs were administered once every 7 days for 5 weeks, starting 14 days after tumor inoculation. When test drug (or the control, Corynebacterium parvum) was administered in combination with Cytoxan, it was given 4 days after the Cytoxan. […] Tumor diameters were measured by means of a Vernier caliper. Test substances were considered active if tumor growth, as indicated by tumor diameter, was inhibited by 50% or more.

Rauscher leukemia virus = test: Antibody response to sheep red blood cells in Rauscher leukemia virus-infected (leukemic) mice, hemagglutinin test; format: in vivo, BALB/C mice; settings: for Hemagglutinin Titer* Test 1: reciprocal of serum dilution producing at least 50% agglutination, infected control 8, non-infected control 1024; for Hemagglutinin Titer* Test 6: infected control 32, non-infected control 2048; for Hemagglutinin Titer* Test 5: infected control 128, non-infected control 4096
[2] = Cytoxan 60 mg./kg. intraperitoneally alone
[3] = 100 mg/kg orally days 6, 7, 8, reciprocal serum dilution, infected control 32, non-infected control 512
[4] = 100 mg./kg. orally + Cytoxan 60 mg./kg.
[5] = 200 mg./kg. orally + Cytoxan 60 mg./kg.
[6] = 300 mg./kg. orally + Cytoxan 60 mg./kg.

O=P1(N(CCCl)CCCl)NCCCO1 (stereo not drawn) [Cytoxan, reference compound]
effect of Cytoxan dose on mammary tumor growth ([1]; 60 mg./kg. alone): ineffective dose
Ave. tumor diameter (mm.^2) (weeks after tumor implantation 3) ([1]; Cytoxan 60 mg./kg. intraperitoneally alone, once every 7 days): 47 mm.^2
No. Survivors No. Treated ([1]; Cytoxan 60 mg./kg. intraperitoneally alone, untreated control 7/8): 6/8
Ave. tumor diameter (mm.^2) (weeks after tumor implantation 4) [1, 2]: 101 mm.^2
Ave. tumor diameter (mm.^2) (weeks after tumor implantation 5) [1, 2]: 187 mm.^2
Ave. tumor diameter (mm.^2) (weeks after tumor implantation 6) [1, 2]: 277 mm.^2
Ave. tumor diameter (mm.^2) (weeks after tumor implantation 7) [1, 2]: 363 mm.^2

CN(C)CCOc1ccc2cc3ccc(OCCN(C)C)cc3nc2c1 [3,6-Bis-(2-dimethylaminoethoxy)acridine]
Hemagglutinin Titer* Test 1 (Rauscher leukemia virus; 100 mg/kg orally days 6, 7, 8): 128
Hemagglutinin Titer* Test 2 (Rauscher leukemia virus; [3]): 128

CN(C)C(C)(C)COc1ccc2cc3ccc(OCC(C)(C)N(C)C)cc3nc2c1 [3,6-Bis-(2-dimethylamino-2-methylpro-poxy)acridine trihydrochloride]
Hemagglutinin Titer* Test 1 (Rauscher leukemia virus; 100 mg/kg orally days 6, 7, 8): 64

CCN(CC)CCOc1ccc2cc3ccc(OCCN(CC)CC)cc3nc2c1.Cl.Cl.Cl [3,6-Bis-(2-diethylaminoethoxy)acridine trihydrochloride]
Hemagglutinin Titer* Test 6 (Rauscher leukemia virus; 37.5 mg/kg orally days 6, 7, 8, reciprocal serum dilution): 64
Hemagglutinin Titer* Test 4 (Rauscher leukemia virus; 50 mg/kg orally days 6, 7, 8, reciprocal serum dilution, infected control 32, non-infected control 512): 128
Hemagglutinin Titer* Test 5 (Rauscher leukemia virus; 50 mg/kg orally days 6, 7, 8, reciprocal serum dilution): 128
Hemagglutinin Titer* Test 6 (Rauscher leukemia virus; 75 mg/kg orally days 6, 7, 8, reciprocal serum dilution): 128
Hemagglutinin Titer* Test 3 (Rauscher leukemia virus; [3]): 128
Hemagglutinin Titer* Test 4 (Rauscher leukemia virus; [3]): 256
Hemagglutinin Titer* Test 5 (Rauscher leukemia virus; 100 mg/kg orally days 6, 7, 8, reciprocal serum dilution): 512
Hemagglutinin Titer* Test 6 (Rauscher leukemia virus; 150 mg/kg orally days 6, 7, 8, reciprocal serum dilution): 128
Hemagglutinin Titer* Test 5 (Rauscher leukemia virus; 200 mg/kg orally days 6, 7, 8, reciprocal serum dilution): 512
Hemagglutinin Titer* Test 6 (Rauscher leukemia virus; 300 mg/kg orally days 6, 7, 8, reciprocal serum dilution): 128
Hemagglutinin Titer* Test 6 (Rauscher leukemia virus; 600 mg/kg orally days 6, 7, 8, reciprocal serum dilution): 256
Ave. tumor diameter (mm.^2) (weeks after tumor implantation 3) ([1]; 100 mg./kg. orally + Cytoxan 60 mg./kg. i.p. (given 4 days after Cytoxan)): 34 mm.^2
Ave. tumor diameter (mm.^2) (weeks after tumor implantation 4) [1, 4]: 53 mm.^2
Ave. tumor diameter (mm.^2) (weeks after tumor implantation 5) [1, 4]: 112 mm.^2
Ave. tumor diameter (mm.^2) (weeks after tumor implantation 6) [1, 4]: 149 mm.^2
Ave. tumor diameter (mm.^2) (weeks after tumor implantation 7) [1, 4]: 107 mm.^2
Ave. tumor diameter (mm.^2) (weeks after tumor implantation 3) ([1]; 200 mg./kg. orally + Cytoxan 60 mg./kg. i.p. (given 4 days after Cytoxan)): 32 mm.^2
Ave. tumor diameter (mm.^2) (weeks after tumor implantation 4) [1, 5]: 66 mm.^2
Ave. tumor diameter (mm.^2) (weeks after tumor implantation 5) [1, 5]: 82 mm.^2
Ave. tumor diameter (mm.^2) (weeks after tumor implantation 6) [1, 5]: 115 mm.^2
Ave. tumor diameter (mm.^2) (weeks after tumor implantation 7) [1, 5]: 135 mm.^2
Ave. tumor diameter (mm.^2) (weeks after tumor implantation 3) ([1]; 200 mg./kg. orally alone, once every 7 days): 22 mm.^2
Ave. tumor diameter (mm.^2) (weeks after tumor implantation 4) ([1]; 200 mg./kg. orally alone): 44 mm.^2
Ave. tumor diameter (mm.^2) (weeks after tumor implantation 5) ([1]; 200 mg./kg. orally alone): 109 mm.^2
Ave. tumor diameter (mm.^2) (weeks after tumor implantation 6) ([1]; 200 mg./kg. orally alone): 148 mm.^2
Ave. tumor diameter (mm.^2) (weeks after tumor implantation 7) ([1]; 200 mg./kg. orally alone): 223 mm.^2
Ave. tumor diameter (mm.^2) (weeks after tumor implantation 3) ([1]; 300 mg./kg. orally + Cytoxan 60 mg./kg. i.p. (given 4 days after Cytoxan)): 37 mm.^2
Ave. tumor diameter (mm.^2) (weeks after tumor implantation 4) [1, 6]: 71 mm.^2
Ave. tumor diameter (mm.^2) (weeks after tumor implantation 5) [1, 6]: 99 mm.^2
Ave. tumor diameter (mm.^2) (weeks after tumor implantation 6) [1, 6]: 128 mm.^2
Ave. tumor diameter (mm.^2) (weeks after tumor implantation 7) [1, 6]: 160 mm.^2
Ave. tumor diameter (mm.^2) (weeks after tumor implantation 3) ([1]; 300 mg./kg. orally alone, once every 7 days): 61 mm.^2
Ave. tumor diameter (mm.^2) (weeks after tumor implantation 4) ([1]; 300 mg./kg. orally alone): 98 mm.^2
Ave. tumor diameter (mm.^2) (weeks after tumor implantation 5) ([1]; 300 mg./kg. orally alone): 220 mm.^2
Ave. tumor diameter (mm.^2) (weeks after tumor implantation 6) ([1]; 300 mg./kg. orally alone): 375 mm.^2
inhibitory effect on mammary tumor growth compared to the untreated control ([1]; administered alone at 300, 200 and 100 mg./kg. every week for 5 weeks): only the 200 mg./kg. dose level produced an inhibitory effect
tumor growth being inhibited ([1]; combined with Cytoxan 60 mg./kg., all dose levels (300, 200, 100 mg./kg.)): 50 - 65%
tumor diameter of treated mice averaging ([1]; combined with Cytoxan 60 mg./kg., all dose levels, 316 mm.^2 for the untreated controls): 107 - 160 mm.^2

CN(C)CCCOc1ccc2cc3ccc(OCCCN(C)C)cc3nc2c1 [3,6-Bis-(3-dimethylaminopropoxy)acridine]
Hemagglutinin Titer* Test 1 (Rauscher leukemia virus; 100 mg/kg orally days 6, 7, 8): 128
Hemagglutinin Titer* Test 2 (Rauscher leukemia virus; [3]): 128

CCCCN(CCCC)CCOc1ccc2cc3ccc(OCCN(CCCC)CCCC)cc3nc2c1 [3,6-Bis-(2-di-n-butylaminoethoxy)acri-dine trihydrochloride]
Hemagglutinin Titer* Test 1 (Rauscher leukemia virus; 100 mg/kg orally days 6, 7, 8): 32
